What was measured:
FRDA fibroblasts = assay: FRDA fibroblast assay for protection from oxidative stress (BSO); assay type: cell-based; details: Homo sapiens, preincubation 24 h before 1 mM BSO, read-out: EC50, reduced cell death in FRDA fibroblasts compared to untreated FRDA fibroblasts
Excerpt: A cellular assay using FRDA-patient derived fibroblasts (as described by Jauslin, M L et al, Human Molecular Genetics 11; 3055-3063 (2002)); was used to determine the protective effects of the test compounds by analyzing survival of dermal fibroblasts taken from FRDA patients and unaffected normal donors under conditions of partial GSH depletion. Exposure of FRDA fibroblasts to BSO (L-buthionine (S,R)-sulfoximine) under conditions of restricted selenium causes depletion of cellular glutathione (GSH) and severe plasma membrane damage leading to cell death. Preincubation with the test compounds before the addition of BSO was used to determine if they could protect FRDA cells from BSO-mediated cell death.
Primary fibroblasts were derived from donors with a molecular diagnosis of FRDA and control donors with no mitochondria) disease. Lines F2, C2 and C3 were obtained from Coriell Cell Repositories (Camden, N.J., USA; catalog nos GM04078, GM 08402 and GM08399, respectively). All cell types were diagnosed at the molecular level for intronic GAA triplet repeat length in the frataxin gene using a PCR-based method, according to methods known in the art. […] The cells were seeded in 96-well plates at a density of 4000 cells per 100 pI in growth medium consisting of 25% (v/v) M199 EBS and 64% (v/v) MEM EBS without phenol red (Bioconcept, Allschwil, Switzerland) supplemented with 10% (v/v) fetal calf serum (PAA Laboratories, Linz, Austria), 100 U/ml penicillin, 100 μg/ml streptomycin (PAA Laboratories, Linz, Austria), 10 μg/ml insulin (Sigma, Buchs, Switzerland), 10 ng/ml EGF (Sigma, Buchs, Switzerland), 10 ng/ml bFGF (PreproTech, Rocky Hill, N.J., USA) and 2 mM glutamine (Sigma, Buchs, Switzerland). The cells were incubated in the presence of the various test compounds for 24 h before addition of 1 mM BSO (L-buthionine (S,R)-sulfoximine).
Cell viability was measured after the first signs of toxicity appeared in the BSO-treated controls (typically after 16-48 h). The cells were stained for 60 min at room temperature in PBS with 1.2 μm calceinAM and 4 pm ethidium homodimer (Live/Dead assay, Molecular Probes, Eugene, Oreg., USA). Fluorescence intensity was measured with a Gemini Spectramax XS spectrofluorimeter (Molecular Devices, Sunnyvale, Calif., USA) using excitation and emission wavelengths of 485 and 525 nm, respectively.

[1] = biological target: T1, porcine leukocyte 12/15-lipoxygenase (Sus scrofa, UniProt P16469); assay: 12/15-Lipoxygenase enzyme assay; assay type: biochemical; details: 70 μM arachidonic acid, pH 7.4, 10 minute incubation; read-out: IC50, inhibition of 12/15-Lipoxygenase
T1 construct: purchased Cayman 60300
T1 sequence (P16469 1-663): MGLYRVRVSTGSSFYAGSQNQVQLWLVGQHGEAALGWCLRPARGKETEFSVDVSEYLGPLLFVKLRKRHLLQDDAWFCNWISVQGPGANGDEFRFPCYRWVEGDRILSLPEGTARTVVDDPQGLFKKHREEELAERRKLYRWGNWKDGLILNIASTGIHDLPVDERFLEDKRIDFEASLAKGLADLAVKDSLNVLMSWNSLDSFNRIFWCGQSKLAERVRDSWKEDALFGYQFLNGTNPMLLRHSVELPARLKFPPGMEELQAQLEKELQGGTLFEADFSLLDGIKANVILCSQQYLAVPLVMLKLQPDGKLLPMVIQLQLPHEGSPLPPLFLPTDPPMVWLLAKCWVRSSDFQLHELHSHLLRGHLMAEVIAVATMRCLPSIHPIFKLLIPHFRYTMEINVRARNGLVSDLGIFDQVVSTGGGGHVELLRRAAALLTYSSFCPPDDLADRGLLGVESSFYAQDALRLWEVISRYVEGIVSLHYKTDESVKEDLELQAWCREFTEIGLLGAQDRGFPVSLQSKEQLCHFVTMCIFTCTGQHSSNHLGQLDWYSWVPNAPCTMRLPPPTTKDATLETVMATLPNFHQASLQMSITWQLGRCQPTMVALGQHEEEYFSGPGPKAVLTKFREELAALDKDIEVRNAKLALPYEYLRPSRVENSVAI
Excerpt: In vitro evaluation of the ability of a composition to inhibit the enzymes 5-lipoxygenase, 15-lipoxygenase, or 12/15 lipoxygenase as described in Walidge, N. B. et al Anal. Biochem., 231: 354-358 (1995) using a high throughput colorimetric method; as well as in vitro evaluation of inhibiting LTB4 is described in Examples.
This procedure was used for measuring the enzymatic activity of porcine leukocyte 12/15-lipoxygenase using a colorimetric method based on the ferric oxidation of xylenol orange.
• 96 well flat bottom microfilter plates (VWR, Catalog #62402-933 9295) • Lipoxygenase screening assay buffer (Cayman, Catalog #760710) • Porcine leukocyte 12/15-lipoxygenase (Cayman, Catalog #60300) • Arachidonic Acid (Sigma, Catalog #A3555) • Xylenol orange tetrasodium salt (Aldrich, Catalog #227854) • Iron (II) sulfate heptahydrate (Sigma, Catalog #F7002) • Sulfuric acid (95-98%) [18M] • Methanol Procedure
Porcine Leukocyte 12/15-lipoxygenase (Cayman Cat #60300) was used in this assay. Test compound and/or vehicle was added to 1.3 U 12/15-lipoxygenase in 50 mM Tris-HCl buffer, pH 7.4. The reaction was initiated by addition of 70 μM arachidonic acid in Tris-HCl buffer, pH 7.4, and terminated after a 10 minute incubation at room temperature by addition of FOX reagent (25 mM sulphuric acid, 100 μM xylenol orange, 100 μM iron (II) sulphate, methanol:water 9:1). The yellow color of acidified xylenol orange was converted to a blue color by the lipid hydroperoxide-mediated oxidation of Fe 2+ ions and the interaction of the resulting Fe 3+ ions with the dye. The complex was allowed to form during a 1 hour incubation at room temperature with shaking. Absorbance of the Fe 3+ complex was then measured at […] using a spectrophotometer.
Negative controls contained enzyme during the incubation step but substrate was not added until after the FOX reagent.
Compounds are screened at 5 concentrations in triplicate starting at 10 μM

Row | SMILES | EC50 (FRDA fibroblasts) [nM] | IC50 [1] [nM]
1 | Cc1c(O)cc2c(c1C)OC(C)(CC/C=C1\SC(=O)NC1=O)CC2 (stereo not drawn) [5-[3-(6-Hydroxy-2,7,8-trimethyl-chroman-2-yl)-propylidene]-thiazolidine-2,4-dione] | 10 to 6000 | 
2 | CC1=NN(c2ccccc2)C(=O)C1C(CCC1(C)CCc2cc(O)c(C)c(C)c2O1)C1C(=O)N(c2ccccc2)N=C1C (stereo not drawn) [1-(6-Hydroxy-2,7,8-trimethyl-chroman-2-yl)-3-bis-(5-methyl-2-phenyl-2,4-dihydro-pyrazol-3-one-4-yl)-propane] | 10 to 6000 | 
3 | C=CCSCc1c(O)c(C)c(C)c2c1CCC(C)(C)O2 [5-Allylsulfanylmethyl-2,2,7,8-tetramethyl-chroman-6-ol] | 10 to 6000 | < 1000
4 | COC(=O)c1ccc(-c2c(O)c(C)c(C)c3c2CCC(C)(C)O3)cc1 [4-(6-Hydroxy-2,2,7,8-tetramethyl-chroman-5-yl)-benzoic acid methyl ester] |  | < 1000
5 | Cc1c(C)c2c(c(C)c1O)CCC(C)(C=C(Br)Br)O2 (stereo not drawn) [2-(2,2-Dibromo-vinyl)-2,5,7,8-tetramethyl-chroman-6-ol] |  | < 1000

From US8791155B2, “Chroman derivatives” (Edison Pharmaceuticals, Inc., priority 2003, dated 2014)
